Each structure is given as a SMILES string. Where two headings read alike, the source gives them in different places.

The text below walks through data of article PMC3991331, “Fragment screening reveals salicylic hydroxamic acid as an inhibitor of Trypanosoma brucei GPI GlcNAc-PI de-N-acetylase” (Carbohydrate Research, 2014).

For data set [1], the target named is T1, recombinant T. brucei GlcNAc-PI de-N-acetylase (GST-TbGPI12) (Trypanosoma brucei, UniProt Q8I8A5). The data set can be described thus: Mass spectrometry based activity assay, recombinant GST-TbGPI12. It is filed as biochemical. As for the experimental part:
Inhibition assays were performed in 100 μL final volume, with 1% v/v DMSO with or without inhibitor. […]. Enriched glycolipids were analysed by liquid chromatography coupled to an electrospray tandem mass spectrometer (LC–MS/MS). Samples (40 μL) were injected on to a 10 × 1 mm C18 column (ACE, 5 μM) and eluted using a binary gradient of 5–80% propan-1-ol in 5 mM NH4OAc (Dionex Ultimate 3000). The gradient consisted of 2 min 0% B, 2–4 min 0–100% B, 4–8 min 100%, 8–9 min 100–0% B, 9–10 min 0% B where buffer A consisted of 5% propan-1-ol, 5 mM NH4OAc and buffer B 80% propan-1-ol, 5 mM NH4OAc. The glycolipids were analysed on an electrospray triple quadrapole mass spectrometer (Micromass Quattro Ultima) in multiple reaction monitoring mode. The turnover of the substrate GlcNAc-IPC18 (m/z 715 > 223) to GlcN-IPC18 (m/z 672 > 223) was used to calculate the percentage of substrate conversion to product in a given sample.[6] Inhibitor IC50 values were calculated using a four-parameter fit of eight-point potency curves derived from three independent experiments, and are quoted with standard deviation. […]
Figure 2 T. brucei GlcNAc-PI de-N-acetylase inhibitors. The activity of the recombinant enzyme against the synthetic substrate D-glucosamine-α-(1-6)-D-myo-inositol-1-octadecyl phosphate was measured using a mass spectrometry based assay (A) Fragments were screened at 1 mM in duplicate. […]

Data set [2] addresses T1, recombinant T. brucei GlcNAc-PI de-N-acetylase (GST-TbGPI12). Further details: method as in PMID 22222041. The following applies: previously reported glucocyclitol-phospholipid substrate analogue; cited from earlier work.
The subject of data set [3] is bloodstream form T. brucei. Further details: method as in PMID 986688, PMID 17126803. As to conditions: cited from earlier work.
Data set [4] deals with T. brucei de-N-acetylase (cell-free system) (Trypanosoma brucei, UniProt Q8I8A5). Briefly: Mass spectrometry based activity assay, trypanosome cell-free system. It is filed as biochemical. As to conditions: for inhibition at 1000 µM: read-out: Inhibition at 1 mM (%); for ligand efficiency: from IC50 in cell-free system. On the procedure: Inhibition assays were performed in 100 μL final volume, with 1% v/v DMSO with or without inhibitor. […] Enriched glycolipids were analysed by liquid chromatography coupled to an electrospray tandem mass spectrometer (LC–MS/MS). Samples (40 μL) were injected on to a 10 × 1 mm C18 column (ACE, 5 μM) and eluted using a binary gradient of 5–80% propan-1-ol in 5 mM NH4OAc (Dionex Ultimate 3000). The gradient consisted of 2 min 0% B, 2–4 min 0–100% B, 4–8 min 100%, 8–9 min 100–0% B, 9–10 min 0% B where buffer A consisted of 5% propan-1-ol, 5 mM NH4OAc and buffer B 80% propan-1-ol, 5 mM NH4OAc. The glycolipids were analysed on an electrospray triple quadrapole mass spectrometer (Micromass Quattro Ultima) in multiple reaction monitoring mode. […] Inhibitor IC50 values were calculated using a four-parameter fit of eight-point potency curves derived from three independent experiments, and are quoted with standard deviation. […]

Data set [5] deals with T. brucei GPI pathway (cell-free system). Briefly: Trypanosome cell-free system assay, [3H]-mannose incorporation into GPI intermediates (HPTLC, fluorography). The following applies: GlcNAc-IPC18 10 μM; GDP-[3H]-mannose; tested at 0, 100, 300, 1000 μM.
Description: Trypanosome cell-free system assays, where the formation of GPI precursors is monitored by following the incorporation of [^3H]-mannose were analysed using high-performance liquid chromatography and fluorography as described previously.[13]
Priming the cell-free system with GlcAc-IPC18 in the presence of GDP-[^3H]-mannose stimulates the production of radiolabelled mannosylated GPI intermediates that can be separated by high performance thin-layer chromatography and visualised by fluorography.
(A) The T. brucei cell-free system was incubated with GlcNAc-PI (10 μM) in the presence of 0, 100, 300, or 1000 μM of 1 and 0.5 μCi of GDP-[^3H]-mannose to stimulate the production of radiolabelled mannosylated GPI intermediates. Glycolipid products were extracted, separated by high-performance thin-layer chromatography, and visualised by fluorography. DPM–dolichol-phosphate-mannose, M1–Man1GlcN-IPC18, M2–Man2GlcN-IPC18, M3–Man3GlcN-IPC18, A′–EtNPMan3GlcN-IPC18. (B) Inhibition of the turnover of GlcNAc-IPC18 (10 μM) by the presence of 1 measured in the T. brucei cell-free system in the LC–MS/MS assay.
The mark [6] stands for this setting: 1 mM, cell-free system, Table 1, commercially available analogues of 1.
Setting [7] is: 1 mM, fragment library screen, Table S1, footnote: cell-free system.

T. brucei de-N-acetylase (cell-free system), sequence (Q8I8A5 entry or part of it): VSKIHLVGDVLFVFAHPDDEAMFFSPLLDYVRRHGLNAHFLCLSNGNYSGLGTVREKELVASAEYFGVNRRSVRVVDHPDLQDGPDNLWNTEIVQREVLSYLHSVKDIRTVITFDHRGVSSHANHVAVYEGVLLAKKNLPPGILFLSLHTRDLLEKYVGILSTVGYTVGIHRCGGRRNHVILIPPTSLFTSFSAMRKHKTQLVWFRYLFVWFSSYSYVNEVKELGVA
T1 sequence (Q8I8A5 entry or part of it): as above

Turning to `CCCCCCCCCCCCCCCCCCOP(=O)(O)O[C@@H]1CCCC[C@H]1O[C@@H]1O[C@H](CO)[C@@H](O)[C@H](O)[C@H]1CC(=O)NO` [1R,2R-1-O-[2-C-(carboxymethyl N-hydroxyamide)-2-deoxy-β-D-glucopyranosyl]-cyclohexanediol 2-(n-octadecylphosphate), reference compound], in data set [1] (from the previously reported IC50 of ref 13), the ligand efficiency was −0.13 kcal mol^−1 per non-hydrogen atom. The IC50 in data set [2] was 19 ± 0.5 µM. Regarding `O=C(NO)c1ccccc1O` [compound 1, salicylic hydroxamic acid], the IC50 in data set [1] is 63 ± 4 µM. For the same compound, the “toxicity in vivo to bloodstream form T. brucei” value in data set [3] is given as “toxic in vivo”. In addition, the inhibition at 1000 µM in data set [4] was determined as 97 ± 2%. In addition, in data set [5], the “concentration that prevented priming of the cell-free system with GlcNAc-IPC18” value was above 300 µM.

On to `O=C(O)c1ccccc1O` [compound 2], for which the inhibition at 1000 µM in data set [4] came out at 25 ± 1%. For `O=C(NO)c1ccccc1` [compound 3], in data set [4] (setting [6]), the inhibition at 1000 µM was -6 ± 14%. In the case of `O=C(NO)c1ccccc1Br` [compound 4], in data set [4] (setting [6]), the inhibition at 1000 µM is -4 ± 15%. Consider `Nc1ccccc1C(=O)NO` [compound 5], for which the inhibition at 1000 µM in data set [4] (setting [6]) was -5 ± 2%. Consider `O=C(NO)c1ccc(Br)cc1O` [compound 6], for which, in data set [4] (setting [6]), the inhibition at 1000 µM amounted to 86 ± 2%. Regarding `O=C(NO)c1ccc(Br)cc1` [compound 7], in data set [4] (setting [6]), the inhibition at 1000 µM stood at 9.6 ± 15%.

Consider `O=C(NO)c1cc(NC(=O)C2CCCCC2)ccc1O` [compound 20, 5-(Cyclohexanecarboxamido)-N,2-dihydroxybenzamide], for which the melting point lay within 229 to 230 °C. In addition, in data set [4], the ligand efficiency is listed as −0.30 kcal mol^−1 per non-hydrogen atom and the inhibition at 1000 µM is 99 ± 1.6%. Compound `O=C(Nc1ccc(O)c(C(=O)NO)c1)c1ccccc1` [compound 21, 5-Benzamido-N,2-dihydroxybenzamide] showed a melting point of 211 °C. Further, in data set [4], the ligand efficiency is −0.29 kcal mol^−1 per non-hydrogen atom and the inhibition at 1000 µM is 96 ± 0.4%.

As for `Cc1ccc(C(=O)Nc2ccc(O)c(C(=O)NO)c2)cc1` [compound 22, N,2-Dihydroxy-5-(4-methylbenzamido)benzamide], the melting point was 209 °C. The inhibition at 1000 µM in data set [4] is 62 ± 24%. In the case of `CCCCCCCCCCCCCCCCCC(=O)Nc1ccc(O)c(C(=O)NO)c1` [compound 23, N,2-Dihydroxy-5-stearamidobenzamide], the melting point lay within 185 to 187 °C. For the same compound, the inhibition at 1000 µM in data set [4] is 25 ± 14%. In turn, `CC(=O)N1CCC(C(=O)Nc2ccc(O)c(C(=O)NO)c2)CC1` [compound 24, 1-Acetyl-N-(4-hydroxy-3-(hydroxycarbamoyl)phenyl)piperidine-4-carboxamide] displayed a melting point of 211 to 212 °C. The inhibition at 1000 µM in data set [4] is 40 ± 17%. For the compound `O=C(Nc1ccc(O)c(C(=O)NO)c1)c1ccc(-c2ccccc2)cc1` [compound 25, N-(4-Hydroxy-3-(hydroxycarbamoyl)phenyl)-[1,1'-biphenyl]-4-carboxamide], the melting point turned out to be 216 °C. For the same compound, the inhibition at 1000 µM in data set [4] is 75 ± 7%.

On to `O=C(NO)c1cc(NC(=O)C2CCOCC2)ccc1O` [compound 26, N-(4-Hydroxy-3-(hydroxycarbamoyl)phenyl)tetrahydro-2H-pyran-4-carboxamide], for which the melting point is 209 °C. Also, the inhibition at 1000 µM in data set [4] was found to be 56 ± 8.3%.

In the case of `O=C(Nc1ccc(O)c(C(=O)NO)c1)c1ccc2c(c1)OCO2` [compound 27, N-(4-Hydroxy-3-(hydroxycarbamoyl)phenyl)benzo[d][1,3]dioxole-5-carboxamide], the melting point is 209 °C. In data set [4], the inhibition at 1000 µM came out at 86 ± 11%. Take `COc1ccc(NC(=O)NO)cc1` [compound 503]: in data set [4] (setting [7]), the inhibition at 1000 µM was 53 ± 2%. In the case of `O=C(CCCOc1ccc(Cl)cc1Cl)NO` [compound 508], the inhibition at 1000 µM in data set [4] (setting [7]) came out at 67 ± 20%. Take `O=C(COc1ccc(Cl)cc1Cl)NO` [compound 509]: the inhibition at 1000 µM in data set [4] was 62 ± 0.3%. Take `O=C(NO)C1CCN(c2ncc(C(F)(F)F)cc2Cl)CC1` [compound 513]: the inhibition at 1000 µM in data set [4] (setting [7]) is 54 ± 4%. On to `O=C(CCc1nc(-c2ccc(Cl)cc2)no1)NO` [compound 514], for which, in data set [4] (setting [7]), the inhibition at 1000 µM worked out at 54 ± 9%.
